Laboratory results taken from patent US20120035156A1, “COMBINATION OF GLYT1 COMPOUND WITH ANTIPSYCHOTICS” (priority 2010, published 2012).
“And” between values parts separate entries of the source, which are not always exact repeats. Equal values may be shown once. Read-outs that look alike come from different tables or passages of the source.

How the values were obtained:
[1] = tested on: L-687,414-induced hyperlocomotion; test: Reversal of L-687,414-induced hyperlocomotion in mice; type: in vivo; settings: for ED50: Mus musculus, po, 1 h, read-out: ED50 of compound alone, L-687,414-induced hyperlocomotion; for reversal of hyperlocomotion induced by L-687,414 (in words): single agents, mice, L-687,414 50 mg/kg
Protocol: RG1678, [4-(3-Fluoro-5-trifluoromethyl-pyridin-2-yl)-piperazin-1-yl]-[5-methanesulfonyl-2-((S)-2,2,2 trifluoro-1-methyl-ethoxy)-phenyl]-methanone (WO05/014563) and L-687,414, ((3R,4R)-3-amino-1-hydroxy-4-methylpyrrolidin-2-one (Tetrahedron Letters, Vol. 49, issue 42, 2008, 6079-6080) and olanzapine were synthesized according to known methods by the Medicinal Chemistry Department of F. Hoffmann-La Roche, and risperidone was purchased from Sigma. All drugs were dissolved in H2O/0.3% Tween 80 and administered orally in a volume of 10 ml/kg body weight.
Male NMRI mice (20-30 g) supplied from Iffa Credo, Lyon, France, were housed in a vivarium at controlled temperature (20-22° C.) and a 12 hr light/dark cycle (lights on 6:00 a.m. Animals were allowed ad libitum access to food and water. The experimental procedures used in the present study received prior approval from the City of Basel Cantonal Animal Protection Committee based on adherence to federal and local regulations. Behavioral experiments were conducted during the hours of 8:00 a.m. and 2:00 p.m.
A computerized Digiscan 16 Animal Activity Monitoring System (Omnitech Electronics, Columbus, Ohio) was used to quantify locomotor activity. Data were obtained simultaneously from eight Digiscan activity chambers placed in a soundproof room with a 12 hr light/dark cycle. Experiments were performed during the light phase between 06:30 a.m. and 5:00 p.m. Each activity monitoring chamber consisted of a Plexiglas box (41×41×28 cm; W×L×H) with sawdust bedding on the floor surrounded by invisible horizontal and vertical infrared sensor beams. The chambers were divided by a Plexiglas cross providing each mouse with 20×20 cm of moving space. Two animals per box were monitored simultaneously. Chambers were connected to a Digiscan Analyzer linked to a computer that constantly collected the beam status information. The activity detector operates by counting the number of times the beams change from uninterrupted to interrupted status or vice-versa. Records of photocell beam interruptions for individual animals were taken every five minutes over the duration of the experimental session. Mice were first treated with RG1678 at different doses or at a fixed low dose administered p.o. and, 30 minutes later, treated with an antipsychotic at different doses or at a fixed low dose administered p.o. Fifteen minutes after the antipsychotic treatment mice received a s.c. injection of 50 mg/kg of L-687,414. Mice were then transferred from their home cages to the recording chambers for a 15-min habituation phase allowing free exploration of the new environment. Horizontal activity was then recorded for a 60-min time period. The horizontal activity value for each group of animals at a given dose of RG1678 alone or in combination with an antipsychotic (y1) was expressed as % of L-687,414-induced hyperlocomotion and calculated according to the equation (((y1−vehicle horizontal activity)/(L-687,414 horizontal activity−vehicle horizontal activity))×100). For dose-response experiments, the horizontal activity value for each group of animal at a given dose of GlyT1 inhibitor or antipsychotics (y1) was expressed as a percent of L-687,414-induced hyperlocomotion and calculated according to the equation (((y1−vehicle horizontal activity)/(L-687,414 horizontal activity−vehicle horizontal activity))×100). ID50 values, defined as doses of each compound producing 50% inhibition of L-687,414-induced hyperlocomotion, were calculated by linear regression analysis of the dose-response data using an Excel-based computer curve-fitting program.

[2] = tested on: L-687,414-induced hyperlocomotion; settings: mice; D. Alberati et al 2010; cited from earlier work
[3] = tested on: schizophrenic patients; settings: added to conventional therapy; cited from earlier work

SMILES: Cc1cc2c(s1)Nc1ccccc1N=C2N1CCN(C)CC1 [olanzapine, 2-methyl-4-(4-methyl-1-piperazinyl)-10H-thieno[2,3-b][1.5]benzodiazepine]
- ED50 [1]: 0.06 mg/kg
- reversal of hyperlocomotion induced by olanzapine alone ([1]; olanzapine 0.05 mg/kg p.o., male NMRI mice, L-687,414 50 mg/kg s.c.): 34%

SMILES: O=C(CCCN1CCC(O)(c2ccc(Cl)cc2)CC1)c1ccc(F)cc1 [haloperidol]
- prevention of hyperlocomotion induced by L-687,414 (assay validation) [2]: effective in preventing this behavioral effect in a dose-dependant manner

SMILES: C[C@H](Oc1ccc(S(C)(=O)=O)cc1C(=O)N1CCN(c2ncc(C(F)(F)F)cc2F)CC1)C(F)(F)F [RG1678]
- ED50 ([1]; male NMRI mice, p.o., L-687,414 50 mg/kg s.c., horizontal activity recorded 1 hour): 0.76 mg/kg
- reversal of hyperlocomotion induced by RG1678 alone ([1]; RG1678 0.6 mg/kg p.o., male NMRI mice, L-687,414 50 mg/kg s.c.): 19% and 21%
- reversal of hyperlocomotion induced by L-687,414 (in words) [1]: dose-dependently reversed hyperlocomotion

SMILES: N[C@H](CO)C(=O)O [D-serine]
- effect on positive, negative and cognitive symptoms [3]: improved positive, negative and cognitive symptoms

SMILES: O=C1CCc2ccc(OCCCCN3CCN(c4cccc(Cl)c4Cl)CC3)cc2N1 [aripiprazole, 7-{4-[4-(2,3-dichlorophenyl)piperazin-1-yl]butoxy}-3,4-dihydroquinolin-2(1H)-one]
- prevention of hyperlocomotion induced by L-687,414 (assay validation) [2]: effective in preventing this behavioral effect in a dose-dependant manner

SMILES: NCC(=O)O [glycine]
- effect on positive, negative and cognitive symptoms [3]: improved positive, negative and cognitive symptoms
- prevention of hyperlocomotion induced by L-687,414 (assay validation) [2]: dose-dependently blocked hyperlocomotion

SMILES: Cc1nc2n(c(=O)c1CCN1CCC(c3noc4cc(F)ccc34)CC1)CCCC2 [risperidone, 3-[2-[4-(6-fluoro-1,2-benzisoxazol-3-yl)piperidino]ethyl]-2.methyl-6,7,8,9-tetrahydro-4H-pyrido-[1.2-a]pyrimidin-4-one]
- ED50 [1]: 0.023 mg/kg
- reversal of hyperlocomotion induced by risperidone alone ([1]; risperidone 0.005 mg/kg p.o., male NMRI mice, L-687,414 50 mg/kg s.c.): 15%
- reversal of hyperlocomotion induced by L-687,414 (in words) [1]: dose-dependently reversed hyperlocomotion
- prevention of hyperlocomotion induced by L-687,414 (assay validation) [2]: effective in preventing this behavioral effect in a dose-dependant manner

SMILES: CNCC(=O)O [sarcosine]
- effect on positive, negative and cognitive symptoms [3]: improved positive, negative and cognitive symptoms
